Legend:
[1] = biological target: T1, human mGluR6 (Homo sapiens, UniProt O15303); assay: Multispan Allosteric Profiling panel, Ca2+ (Gqi5); assay type: cell-based
T1 construct: host or cells: HEK293 co-expressing Gqi5

[2] = biological target: human mGluR2 (Homo sapiens, UniProt Q14416); assay: Forskolin-stimulated cAMP accumulation in HEK293 cells; assay type: cell-based; parameters: expressed in transfected cells; host or cells: HEK293 Flp-in-T-REx (inducible), co-expressing Gα16
Protocol: Recombinant human mGluR2 receptor and the excitatory amino acid transporter SLCA1 were stably expressed in a doxycycline inducible HEK293 Flp-in-T-Rex cell line. […] Cells were treated with the compounds, and cAMP production was induced with 1 μM Forskolin for 5 min. cAMP was detected using the CisBio HTRF detection kit. […] EC50 were calculated using 4-parameter curve fitting.

[3] = biological target: T2, human mGluR8 (Homo sapiens, UniProt O00222); assay: Multispan Allosteric Profiling panel, Ca2+ (Gqi5); assay type: cell-based
T2 construct: host or cells: HEK293 co-expressing Gqi5

[4] = biological target: T3, rat mGluR3 (Rattus norvegicus, UniProt P31422); assay: [3H]LY341495 binding to membranes
T3 construct: expressed in transfected cells; host or cells: inducible HEK-293 cell line (membranes)
Protocol: Membranes were prepared from an inducible HEK-293 cell line expressing rat mGluR2 or mGluR3. Binding assay was adapted from Johnson et al.[29]. Briefly, [^3H]LY341495 (1.4 nM) was evaluated for binding in the presence or in the absence of orthosteric and allosteric ligands. […] Addition of 5–10 μg membrane protein initiated the incubation. After 45 min at room temperature, the incubation was terminated by rapid filtration followed by scintillation counting. Ki’s were calculated using 4-parameter curve fitting.

[5] = tested on: Swiss mice; assay: MK-801-induced locomotor hyperactivity; assay type: in vivo
Protocol: An actimeter device consisting of a cylinder (20 cm diameter, 9.5 cm height, Apelex, France) equipped with two perpendicular light beams located 1.5 cm above the floor was used. Mice from the transgenic batches (DAT^−/− and NMDA Nr1^neo−/−) were orally pretreated with either SAR218645 or vehicle and individually isolated in boxes for a period of 60 min. Animals were then placed in the actimeter device and locomotor activity (number of interrupted light beams) was recorded for a period of 30 or 60 min. Mice in which the expression of the dopamine transporter (DAT) was knocked out (i.e., the DAT^−/− mouse) have been proposed as a reliable model of the positive symptoms of schizophrenia. In these mice, dopamine levels in the synapse are dramatically elevated and these animals are hyperactive and agitated in behavioral tests. […] Immediately following amphetamine challenge, 30 min after MK-801 challenge, mice were placed in the actimeter devices and locomotor activity was recorded for a period of 30 (DAT^−/−) or 60 (NMDA Nr1^neo−/−) min.
Statistical analyses were performed using SAS V8.2 software (SAS Institute, Cary, NC, USA). The number of light beam breaks (motility count) recorded for 30 or 60 min were analyzed using one-way ANOVAs using a fixed factor of challenge or genotype and complementary post hoc (Newman-Keuls) tests were performed. […]

[6] = tested on: OF1 mice; assay: Pentylenetetrazol (PTZ) seizure threshold test; assay type: in vivo; settings: dose-range 10–30, po
Protocol: The seizure threshold was determined by the infusion of 8 mg/mL of PTZ at a rate of 0.7 mL/min via a flexible plastic catheter into the tail vein of freely moving OF1 mice (22–24 g) using an infusion pump. The convulsant dose for each endpoint was calculated in mg/kg PTZ. SAR218645 (10 and 30 mg/kg, po) and diazepam (3 mg/kg, ip) were administered 60 or 30 min prior to the beginning of PTZ infusion, respectively. One-way ANOVA was used to assess overall effect of treatment, and Dunnett’s post-hoc was used to compare differences between treatment groups. Ten to fifteen animals per group were used.

T1 sequence (O15303 25-877): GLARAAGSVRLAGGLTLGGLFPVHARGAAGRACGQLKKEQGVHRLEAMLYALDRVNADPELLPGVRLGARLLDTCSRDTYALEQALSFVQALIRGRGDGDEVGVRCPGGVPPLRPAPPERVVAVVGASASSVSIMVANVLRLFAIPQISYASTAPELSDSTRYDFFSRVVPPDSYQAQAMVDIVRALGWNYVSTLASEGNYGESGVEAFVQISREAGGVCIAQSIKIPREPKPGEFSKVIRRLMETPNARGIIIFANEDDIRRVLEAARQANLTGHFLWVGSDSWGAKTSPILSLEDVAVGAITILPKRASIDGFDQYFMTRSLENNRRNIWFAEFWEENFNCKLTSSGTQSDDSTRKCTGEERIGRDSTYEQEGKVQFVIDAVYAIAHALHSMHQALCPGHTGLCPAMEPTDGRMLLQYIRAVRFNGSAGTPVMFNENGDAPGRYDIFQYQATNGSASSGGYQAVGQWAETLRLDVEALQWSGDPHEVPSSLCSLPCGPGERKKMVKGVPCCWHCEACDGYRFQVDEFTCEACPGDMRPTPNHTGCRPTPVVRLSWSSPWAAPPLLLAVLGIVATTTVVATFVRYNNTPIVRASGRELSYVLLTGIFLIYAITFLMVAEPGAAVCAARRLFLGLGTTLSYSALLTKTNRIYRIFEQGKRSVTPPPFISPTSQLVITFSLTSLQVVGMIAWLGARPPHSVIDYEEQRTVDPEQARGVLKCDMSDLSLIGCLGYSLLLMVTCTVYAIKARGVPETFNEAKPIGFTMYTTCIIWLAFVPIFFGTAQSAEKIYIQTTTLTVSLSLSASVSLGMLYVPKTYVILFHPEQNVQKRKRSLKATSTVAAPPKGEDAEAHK
T3 sequence (P31422 23-879): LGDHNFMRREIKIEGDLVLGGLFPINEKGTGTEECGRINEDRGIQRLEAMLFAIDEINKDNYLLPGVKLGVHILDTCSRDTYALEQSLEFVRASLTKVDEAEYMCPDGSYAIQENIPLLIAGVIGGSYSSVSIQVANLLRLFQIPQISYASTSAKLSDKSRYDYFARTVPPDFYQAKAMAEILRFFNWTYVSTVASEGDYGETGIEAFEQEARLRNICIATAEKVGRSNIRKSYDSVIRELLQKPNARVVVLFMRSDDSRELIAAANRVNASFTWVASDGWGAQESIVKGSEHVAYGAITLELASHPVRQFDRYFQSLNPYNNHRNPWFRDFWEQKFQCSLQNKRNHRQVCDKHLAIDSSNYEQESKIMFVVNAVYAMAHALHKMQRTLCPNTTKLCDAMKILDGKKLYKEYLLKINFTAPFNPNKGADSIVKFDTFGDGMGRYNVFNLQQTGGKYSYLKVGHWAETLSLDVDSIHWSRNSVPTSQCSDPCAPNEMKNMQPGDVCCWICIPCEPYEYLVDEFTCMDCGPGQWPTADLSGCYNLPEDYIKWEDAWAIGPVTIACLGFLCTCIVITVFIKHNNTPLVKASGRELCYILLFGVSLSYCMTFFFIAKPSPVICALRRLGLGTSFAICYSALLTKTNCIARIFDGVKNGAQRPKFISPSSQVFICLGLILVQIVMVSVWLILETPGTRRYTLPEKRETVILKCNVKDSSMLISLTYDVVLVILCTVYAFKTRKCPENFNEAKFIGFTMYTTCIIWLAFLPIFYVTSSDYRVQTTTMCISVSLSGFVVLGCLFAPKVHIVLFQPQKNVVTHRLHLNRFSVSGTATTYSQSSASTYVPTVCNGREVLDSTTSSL
T2 sequence (O00222 34-908): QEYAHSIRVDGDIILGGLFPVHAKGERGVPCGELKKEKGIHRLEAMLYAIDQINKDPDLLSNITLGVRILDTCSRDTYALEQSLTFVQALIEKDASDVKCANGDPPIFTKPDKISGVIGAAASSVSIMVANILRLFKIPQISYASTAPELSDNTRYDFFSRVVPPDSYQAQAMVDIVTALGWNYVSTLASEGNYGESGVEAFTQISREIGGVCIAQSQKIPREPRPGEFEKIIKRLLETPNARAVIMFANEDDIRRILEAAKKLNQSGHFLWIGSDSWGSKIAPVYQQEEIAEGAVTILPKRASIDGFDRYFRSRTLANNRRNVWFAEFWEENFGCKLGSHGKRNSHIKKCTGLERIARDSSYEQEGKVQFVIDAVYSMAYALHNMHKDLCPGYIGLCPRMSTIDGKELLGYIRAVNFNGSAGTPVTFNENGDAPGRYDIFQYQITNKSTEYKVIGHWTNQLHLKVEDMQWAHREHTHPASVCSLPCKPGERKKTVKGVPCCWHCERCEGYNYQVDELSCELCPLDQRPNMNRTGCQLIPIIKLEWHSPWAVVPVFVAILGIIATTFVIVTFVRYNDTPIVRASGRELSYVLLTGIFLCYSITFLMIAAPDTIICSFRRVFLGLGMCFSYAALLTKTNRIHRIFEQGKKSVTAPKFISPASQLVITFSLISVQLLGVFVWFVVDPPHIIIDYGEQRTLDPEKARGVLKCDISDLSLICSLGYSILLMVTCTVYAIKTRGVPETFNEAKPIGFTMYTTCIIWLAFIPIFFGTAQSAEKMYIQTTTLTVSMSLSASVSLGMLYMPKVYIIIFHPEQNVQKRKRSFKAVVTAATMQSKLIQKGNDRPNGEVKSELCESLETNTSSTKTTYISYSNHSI
Chain of human mGluR2 (Q14416 19-872): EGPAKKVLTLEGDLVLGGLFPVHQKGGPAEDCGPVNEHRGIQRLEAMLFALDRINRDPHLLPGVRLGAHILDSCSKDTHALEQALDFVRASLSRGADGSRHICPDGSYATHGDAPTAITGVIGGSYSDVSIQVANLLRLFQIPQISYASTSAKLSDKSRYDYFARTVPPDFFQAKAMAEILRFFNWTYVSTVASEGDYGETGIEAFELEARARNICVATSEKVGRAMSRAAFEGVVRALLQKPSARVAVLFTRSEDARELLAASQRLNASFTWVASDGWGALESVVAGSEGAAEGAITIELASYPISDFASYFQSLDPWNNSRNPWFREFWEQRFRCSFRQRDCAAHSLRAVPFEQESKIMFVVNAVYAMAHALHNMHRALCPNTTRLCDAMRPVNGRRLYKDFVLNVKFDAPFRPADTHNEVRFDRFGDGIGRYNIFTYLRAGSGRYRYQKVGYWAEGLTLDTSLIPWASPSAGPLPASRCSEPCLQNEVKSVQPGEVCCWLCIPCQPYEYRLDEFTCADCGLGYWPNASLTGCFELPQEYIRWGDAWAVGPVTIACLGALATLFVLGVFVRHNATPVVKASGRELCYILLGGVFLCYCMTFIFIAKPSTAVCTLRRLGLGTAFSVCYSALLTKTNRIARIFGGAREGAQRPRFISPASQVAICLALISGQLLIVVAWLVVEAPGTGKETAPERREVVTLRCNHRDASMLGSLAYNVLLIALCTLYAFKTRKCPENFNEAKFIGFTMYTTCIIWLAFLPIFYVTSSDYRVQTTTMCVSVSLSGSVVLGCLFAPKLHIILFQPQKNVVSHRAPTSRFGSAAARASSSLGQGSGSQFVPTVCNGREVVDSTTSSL

CC1(C)CCc2cc(OC[C@@H]3Cn4ccc(=O)nc4O3)ccc21 [SAR218645, (S)-2-(1,1-dimethyl-indan-5-yloxymethyl)-2,3-dihydro-oxazolo[3,2-a]pyrimidin-7-one]
effect on glutamate-induced activation ([1]; 10 μM SAR218645): no effect
calcium response to compound alone ([1]; SAR218645 alone): did not elicit a calcium response
EC50 [2]: 159 nM
effect on glutamate-induced activation ([3]; 10 μM SAR218645): no effect
calcium response to compound alone ([3]; SAR218645 alone): did not elicit a calcium response
effect on [3H]LY341495 binding, compound alone ([4]; applied alone): no effect
effect on glutamate-mediated inhibition of [3H]LY341495 binding ([4]; with glutamate): nor did the drug affect
effect on locomotor activity ([5]; MK-801 0.2 mg/kg ip, SAR218645 po): no effects
Minimal active dose ([5]; dose-range 0.1–10, po, Swiss mice): >10 mg/kg
Minimal active dose [6]: >30 mg/kg
